# Assays:
# Assay type in all cases: cell-based, rat
# [1] = test system: Atrogin-1; assay: ELISA of Atrogin-1 protein expression; settings: as the concentration of rosuvastatin was increased
# Procedure: Rat myoblast cell line L6 used herein was obtained from Korean Cell Line Bank. Cells were cultured until the number of cells reached 1×10^6 in T-75 flask (BD Biosciences) using DMEM (Dulbecco's Modified Eagle medium) supplemented with 4.5 g/L of D-glucose, L-glutamine, 0.11 g/L of sodium pyruvate and 10% FBS (Fetal bovine serum, Gibco; Invitrogen Corp., CA, USA). To differentiate cells, the medium with 2% HS (Horse serum, Gibco; Invitrogen Corp., CA, USA) was inoculated and the cells were incubated at 37° C. in 5% CO2 incubator (Forma scientific, Germany). The medium was replaced every 2 days and subculture was conducted every 3 to 4 days. In addition, the myoblast cells, used in this experiment, were differentiated up to 0.3×10^6 in 6 well plate (BD biosciences) before they were used. After the washing step with PBS (Gibco; Invitrogen Corp., CA, USA), the cells were used for ELISA, MTT and PCR analysis. […] Non-bound material was removed after washing four times with phosphate-buffered saline containing 0.2% tween 20 (PBS-T). The plate was washed 4 times with PBS buffer containing 0.2% Tween 20; and 200 μl of blocking solution (GenDEPOT) containing 1% BSA (Bovine Serum Albumin) with PBS was seeded onto each well and incubated for 2 hours at 4° C. […] Lastly, the absorbance was measured at 450 nm using an ELISA reader.
# [2] = test system: L6 muscle cells; assay: Cell morphology (confluence) of L6 muscle cells by microscope; settings: 48 hours
# Procedure: (§1) Rat myoblast cell line L6 used herein was obtained from Korean Cell Line Bank. Cells were cultured until the number of cells reached 1×10^6 in T-75 flask (BD Biosciences) using DMEM (Dulbecco's Modified Eagle medium) supplemented with 4.5 g/L of D-glucose, L-glutamine, 0.11 g/L of sodium pyruvate and 10% FBS (Fetal bovine serum, Gibco; Invitrogen Corp., CA, USA). To differentiate cells, the medium with 2% HS (Horse serum, Gibco; Invitrogen Corp., CA, USA) was inoculated and the cells were incubated at 37° C. in 5% CO2 incubator (Forma scientific, Germany). The medium was replaced every 2 days and subculture was conducted every 3 to 4 days. In addition, the myoblast cells, used in this experiment, were differentiated up to 0.3×10^6 in 6 well plate (BD biosciences) before they were used. After the washing step with PBS (Gibco; Invitrogen Corp., CA, USA), the cells were used for ELISA, MTT and PCR analysis.
# To compare the morphology of L6 muscle cells on the concentration of metformin, 0.5×10^5 muscle cells were seeded onto each well in 6 well plate (Falcon) and incubated at 37° C. in 5% CO2 incubator for 24 hours. 20 μM of rosuvastatin was treated and 0, 1, 10, 20, and 100 μM of metformin was treated, respectively. After 48 hours, all of them were observed using a microscope (IS-70, Olympus),
# [3] = test system: L6 muscle cells; assay: MTT assay, viability of L6 muscle cells; settings: 20 μM of rosuvastatin only, 48 hours
# Procedure: MTT assay was carried out to determine the viability of L6 muscle cells. 1×10^4 cells were seeded onto each well in 96 well plate and incubated at 37° C. in 5% CO2 incubator for 24 hours.
# 20 μM of rosuvastatin was treated and 0, 1, 10, 20 and 100 μM of metformin was treated, respectively. […] Lastly, the optical density of formazan was measured at 570 nm using an ELISA Reader.
# [4] = test system: Atrogin-1 mRNA; assay: RT-PCR of Atrogin-1 mRNA in L6 muscle cells; settings: 20 μM of rosuvastatin
# Procedure: as §1
# To measure the mRNA level of Atrogen-1 in muscle cells depending on concentration of metformin, the cells were homogenized in 500 μl of Trizol (Invitrogen) and 3 μg of total RNA was collected using a cell scraper. […]
# [5] = test system: PGC-1 α; assay: ELISA of PGC-1 α protein expression
Compound,protein expression of Atrogin-1 [1],confluence of L6 cells compared to the group without treatment ([2]; 20 μM of rosuvastatin),viability of the cells (MTT) [3],mRNA expression of Atrogin-1 compared to negative control [4],protein level of PGC-1 α compared to negative control ([5]; 0.1 μM of metformin),protein level of PGC-1 α ([5]; more than 1 μM of metformin),"confluence of L6 cells ([2]; 20 μM of rosuvastatin plus 1, 10, 20, 100 μM of metformin)"
CC(C)c1nc(N(C)S(C)(=O)=O)nc(-c2ccc(F)cc2)c1/C=C/[C@@H](O)C[C@@H](O)CC(=O)O [rosuvastatin],increased,decreased significantly,significant decrease,increased,–,–,–
CN(C)C(=N)N=C(N)N [metformin],–,–,–,–,did not show a significant difference,increase,increased as the concentration of metformin increased

# Source: patent publication US9005636B2, “Pharmaceutical composition comprising metformin and rosuvastatin” (BCWorld Pharm Co., Ltd., priority 2009, dated 2015)
